Data published in article PMC12446627, “Novel Thioredoxin reductase 1 inhibitor BS1801 relieves treatment resistance and triggers endoplasmic reticulum stress by elevating reactive oxygen species in glioma” (Redox Biology, 2025).
Like-named read-outs stand apart in the source and are kept apart here.

Key:
[1] = molecular target: T1, Thioredoxin reductase 1 (TrxR1) (Homo sapiens, UniProt Q16881); experiment: biochemical
T1 construct: gene TXNRD1

[2] = molecular target: T1, Thioredoxin reductase 1 (TrxR1)

T1 sequence (Q16881 whole entry): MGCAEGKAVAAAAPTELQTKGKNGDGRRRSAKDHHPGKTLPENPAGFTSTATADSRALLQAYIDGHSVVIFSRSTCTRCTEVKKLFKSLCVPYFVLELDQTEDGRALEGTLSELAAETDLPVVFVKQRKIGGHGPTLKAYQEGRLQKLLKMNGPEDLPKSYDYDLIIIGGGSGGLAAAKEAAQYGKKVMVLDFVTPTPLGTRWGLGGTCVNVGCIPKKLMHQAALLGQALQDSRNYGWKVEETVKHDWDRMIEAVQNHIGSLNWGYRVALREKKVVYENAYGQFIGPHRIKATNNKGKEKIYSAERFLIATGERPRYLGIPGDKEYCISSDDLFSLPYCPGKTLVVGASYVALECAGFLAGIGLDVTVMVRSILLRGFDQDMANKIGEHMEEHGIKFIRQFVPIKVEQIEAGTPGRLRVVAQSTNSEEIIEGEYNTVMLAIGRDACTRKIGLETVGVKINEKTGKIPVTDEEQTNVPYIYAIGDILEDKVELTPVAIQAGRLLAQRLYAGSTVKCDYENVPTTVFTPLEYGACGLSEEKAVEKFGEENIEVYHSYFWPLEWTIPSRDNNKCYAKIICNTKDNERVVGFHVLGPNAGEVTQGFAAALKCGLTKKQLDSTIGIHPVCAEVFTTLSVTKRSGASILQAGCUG

SMILES | Kd [1] | Kd [2]
O=c1c2ccccc2[se]n1CCCCn1[se]c2ccccc2c1=O [BS1801, 2,2'-(butane-1,4-diyl)bis(benzo[d] [1,2]selenazol-3(2H)-one)] | 2.44 µM | 
CC[P](CC)(CC)=[Au][S][C@@H]1O[C@H](COC(C)=O)[C@@H](OC(C)=O)[C@H](OC(C)=O)[C@H]1OC(C)=O [auranofin] |  | 5.07 µM
